Laboratory results reported in US11753407B2, “Compounds for treating spinal muscular atrophy” (PTC Therapeutics, Inc., priority 2012, dated 2023).

Columns and labels:
[1] = tested on: SMN2 minigene mRNA (SMN2-A minigene) in HEK293H cells; experiment: SMN2 minigene mRNA splicing RT-qPCR assay in cultured cells; assay type: cell-based, human; details: Homo sapiens, HEK293-H; concentration increasing full length SMN2 mRNA 1.5-fold relative to vehicle-treated cells; HEK293H cells with SMN2-A minigene, 24 hours, 7-point concentration data; read-out: EC1.5x for production of full length SMN2 mRNA
How it was run: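 EC1.5× values derive from a 24 h treatment of SMN2-A minigene HEK293H cells and GAPDH-normalized RT-qPCR of exon 7-included minigene mRNA relative to vehicle-treated cells.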

[2] = tested on: Smn protein in SMA patient fibroblast cells (GM03813); experiment: Smn protein assay in cultured cells (SMN HTRF); assay type: cell-based, human; details: SMA patient fibroblast cells, 48 hours; for EC1.5x for Smn protein expression: 7-point concentration curve, SMN HTRF, concentration producing 1.5 times Smn protein vs DMSO vehicle control; for maximum fold (Fold) increase of Smn protein: 7-point concentration data, fold relative to vehicle control
How it was run: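 Cells were cultured 72 h, seeded at 5,000/well and dosed with seven concentrations (3.16-fold apart) for 48 h. HTRF on lysates, read at 665 and 620 nm, gave blank-corrected ΔF values relative to DMSO. Potency is reported as EC1.5×, efficacy as maximal fold Smn increase.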

Row | Structure (SMILES) | melting point [°C] | EC (1.5-fold increase) [1] [µM] | EC1.5x for Smn protein expression [2] | maximum fold (Fold) increase of Smn protein [2]
1 | Cc1cc(C2CCN(C)CC2)cn2c(=O)cc(-c3ccc4nn(C)cc4c3)nc12 [Compound 705, 9-methyl-2-(2-methyl-2H-indazol-5-yl)-7-(1-methylpiperidin-4-yl)-4H-pyrido[1,2-a]pyrimidin-4-one] | 222 to 227 | < 0.1 | **** (an EC1.5x≤0.3 μM is indicated by four stars (****)) | ***** (a fold increase >1.65 is indicated by five stars (*****))
2 | Cc1cc(C2CCN(C3CCC3)CC2)cn2c(=O)cc(-c3ccc4nn(C)cc4c3)nc12 [Compound 710, 7-(1-cyclobutylpiperidin-4-yl)-9-methyl-2-(2-methyl-2H-indazol-5-yl)-4H-pyrido[1,2-a]pyrimidin-4-one] | 232 to 235 | < 0.1 | **** (an EC1.5x≤0.3 μM is indicated by four stars (****)) | ***** (a fold increase >1.65 is indicated by five stars (*****))
3 | Cc1cc(C2CCN(CCO)CC2)cn2c(=O)cc(-c3ccc4nn(C)cc4c3)nc12 [Compound 711, 7-[1-(2-hydroxyethyl)piperidin-4-yl]-9-methyl-2-(2-methyl-2H-indazol-5-yl)-4H-pyrido[1,2-a]pyrimidin-4-one] | 216 to 222 | < 0.1 | **** (an EC1.5x≤0.3 μM is indicated by four stars (****)) | ***** (a fold increase >1.65 is indicated by five stars (*****))
4 | Cc1cn2cc(-c3cc(=O)n4cc(N5CCN[C@H](C)C5)ccc4n3)cc(C3CC3)c2n1 [Compound 715, 2-(8-cyclopropyl-2-methylimidazo[1,2-a]pyridin-6-yl)-7-[(3R)-3-methylpiperazin-1-yl]-4H-pyrido[1,2-a]pyrimidin-4-one] | 246 to 250 | < 0.1 | **** (an EC1.5x≤0.3 μM is indicated by four stars (****)) | ***** (a fold increase >1.65 is indicated by five stars (*****))
5 | Cc1cn2cc(-c3cc(=O)n4cc(N5CCN[C@@H](C)C5)ccc4n3)cc(C3CC3)c2n1 [Compound 716, 2-(8-cyclopropyl-2-methylimidazo[1,2-a]pyridin-6-yl)-7-[(3S)-3-methylpiperazin-1-yl]-4H-pyrido[1,2-a]pyrimidin-4-one] | 246 to 250 | < 0.1 | *** (an EC1.5× between >0.3 μM and ≤1 μM is indicated by three stars (***)) | ***** (a fold increase >1.65 is indicated by five stars (*****))
6 | Cc1cn2cc(-c3cc(=O)n4cc(N5C[C@@H](C)N[C@@H](C)C5)ccc4n3)cc(C3CC3)c2n1 [Compound 717, 2-(8-cyclopropyl-2-methylimidazo[1,2-a]pyridin-6-yl)-7-[(3R,5S)-3,5-dimethylpiperazin-1-yl]-4H-pyrido[1,2-a]pyrimidin-4-one] | 205 to 209 | 0.1 to 0.3 | *** (an EC1.5× between >0.3 μM and ≤1 μM is indicated by three stars (***)) | ***** (a fold increase >1.65 is indicated by five stars (*****))
7 | Cc1cc(C2CCN(C3CC3)CC2)cn2c(=O)cc(-c3ccc4nn(C)cc4c3)nc12 [Compound 718, 7-(1-cyclopropylpiperidin-4-yl)-9-methyl-2-(2-methyl-2H-indazol-5-yl)-4H-pyrido[1,2-a]pyrimidin-4-one] | 226 to 231 | < 0.1 | *** (an EC1.5× between >0.3 μM and ≤1 μM is indicated by three stars (***)) | **** (a fold increase between >1.5 and ≤1.65 is indicated by four stars (****))
8 | CCN1CCC(c2cc(C)c3nc(-c4ccc5nn(C)cc5c4)cc(=O)n3c2)CC1 [Compound 719, 7-(1-ethylpiperidin-4-yl)-9-methyl-2-(2-methyl-2H-indazol-5-yl)-4H-pyrido[1,2-a]pyrimidin-4-one] | 237 to 241 | < 0.1 | **** (an EC1.5x≤0.3 μM is indicated by four stars (****)) | **** (a fold increase between >1.5 and ≤1.65 is indicated by four stars (****))
9 | Cc1cc(C2CCNCC2)cn2c(=O)cc(-c3ccc4nn(C)cc4c3)nc12 [Compound 721, 9-methyl-2-(2-methyl-2H-indazol-5-yl)-7-(piperidin-4-yl)-4H-pyrido[1,2-a]pyrimidin-4-one] | 211 | < 0.1 | **** (an EC1.5x≤0.3 μM is indicated by four stars (****)) | ***** (a fold increase >1.65 is indicated by five stars (*****))

The next lines start with results.

Row | melting point [°C] | Structure (SMILES) | EC (1.5-fold increase) [1] [µM] | EC1.5x for Smn protein expression [2] | maximum fold (Fold) increase of Smn protein [2]
10 | 228 to 237 | Cc1cn2nc(-c3cc(=O)n4cc(C5CCN(C6CCC6)CC5)cc(C)c4n3)cc2c(C)n1 [Compound 704, 7-(1-cyclobutylpiperidin-4-yl)-2-(4,6-dimethylpyrazolo[1,5-a]pyrazin-2-yl)-9-methyl-4H-pyrido[1,2-a]pyrimidin-4-one] | 0.1 to 0.3 | **** (an EC1.5x≤0.3 μM is indicated by four stars (****)) | **** (a fold increase between >1.5 and ≤1.65 is indicated by four stars (****))
11 | 237 to 239 | Cc1cn2nc(-c3cc(=O)n4cc(N5CCC(C)(N(C)C)CC5)ccc4n3)cc2c(C)n1 [Compound 706, 7-[4-(dimethylamino)-4-methylpiperidin-1-yl]-2-(4,6-dimethylpyrazolo[1,5-a]pyrazin-2-yl)-4H-pyrido[1,2-a]pyrimidin-4-one] | < 0.1 | **** (an EC1.5x≤0.3 μM is indicated by four stars (****)) | ***** (a fold increase >1.65 is indicated by five stars (*****))
12 | 187 to 189 | CCNC1(C)CCN(c2ccc3nc(-c4cc5c(C)nc(C)cn5n4)cc(=O)n3c2)CC1 [Compound 707, 2-(4,6-dimethylpyrazolo[1,5-a]pyrazin-2-yl)-7-[4-(ethylamino)-4-methylpiperidin-1-yl]-4H-pyrido[1,2-a]pyrimidin-4-one] | < 0.1 | **** (an EC1.5x≤0.3 μM is indicated by four stars (****)) | ***** (a fold increase >1.65 is indicated by five stars (*****))
13 | 181 to 183 | CCCNC1(C)CCN(c2ccc3nc(-c4cc5c(C)nc(C)cn5n4)cc(=O)n3c2)CC1 [Compound 708, 2-(4,6-dimethylpyrazolo[1,5-a]pyrazin-2-yl)-7-[4-methyl-4-(propylamino)piperidin-1-yl]-4H-pyrido[1,2-a]pyrimidin-4-one] | < 0.1 | **** (an EC1.5x≤0.3 μM is indicated by four stars (****)) | ***** (a fold increase >1.65 is indicated by five stars (*****))
14 | 196 to 198 | Cc1cn2nc(-c3cc(=O)n4cc(N5CCC(C)(NCCO)CC5)ccc4n3)cc2c(C)n1 [Compound 709, 2-(4,6-dimethylpyrazolo[1,5-a]pyrazin-2-yl)-7-{4-[(2-hydroxyethyl)amino]-4-methylpiperidin-1-yl}-4H-pyrido[1,2-a]pyrimidin-4-one] | < 0.1 | **** (an EC1.5x≤0.3 μM is indicated by four stars (****)) | ***** (a fold increase >1.65 is indicated by five stars (*****))
15 | 216 to 223 | CCCN1CCC(c2cc(C)c3nc(-c4cc5c(C)nc(C)cn5n4)cc(=O)n3c2)CC1 [Compound 712, 2-(4,6-dimethylpyrazolo[1,5-a]pyrazin-2-yl)-9-methyl-7-(1-propylpiperidin-4-yl)-4H-pyrido[1,2-a]pyrimidin-4-one] | < 0.1 | **** (an EC1.5x≤0.3 μM is indicated by four stars (****)) | ***** (a fold increase >1.65 is indicated by five stars (*****))
16 | 254 to 264 | Cc1cn2nc(-c3cc(=O)n4cc(N5CCNCC5)cc(C)c4n3)cc2c(C)n1 [Compound 720, 2-(4,6-dimethylpyrazolo[1,5-a]pyrazin-2-yl)-9-methyl-7-(piperazin-1-yl)-4H-pyrido[1,2-a]pyrimidin-4-one] | < 0.1 | **** (an EC1.5x≤0.3 μM is indicated by four stars (****)) | ***** (a fold increase >1.65 is indicated by five stars (*****))
17 | 249 to 252 | Cc1cn2nc(-c3cc(=O)n4cc(OC5CCN(C)CC5)ccc4n3)cc2c(C)n1 [Compound 722, 2-(4,6-dimethylpyrazolo[1,5-a]pyrazin-2-yl)-7-[(1-methylpiperidin-4-yl)oxy]-4H-pyrido[1,2-a]pyrimidin-4-one] | < 0.1 | **** (an EC1.5x≤0.3 μM is indicated by four stars (****)) | ***** (a fold increase >1.65 is indicated by five stars (*****))
